Measurements reported in patent US20010014324A1 (priority 1998, published 2001).

Assays:
[1] = tested on: Puccinia recondita spp. tritici; experiment: Induced plant defense on wheat against Puccinia recondita spp. tritici (spray treatment); format: in vivo
Experimental: Ten seeds of wheat ([…]) of the variety “Arina” were grown in pots of 8 cm diameter in a mixture of ⅓ sand and ⅔ TKS1® soil at +25° C. in a 16/8 h light/dark regime. for 7 days till the primary leaf was fully expended.
Brown rust strain Puccinia recondita spp. tritici was propagated on the same variety of wheat. Fully infected, sporulating leaves were cut and the spores dusted onto water containing 0.05% of Tween 20®. The inoculum density was adjusted to 100,000 spores per ml.
Wheat plants with the secondary leaf just emerging were sprayed 7 and 3 days before inoculation. The entire plant was sprayed with PEN extract containing 1-2 g of glucose equivalents and 0.05% of Tween 20 to near run-off with an air driven spray pistol, model JATO 232 FR at 0.5 bar.
After the treatment plants were kept in the greenhouse till they were challenge inoculated. Control plants were mock treated with distilled water.
Treated or control plants were sprayed with approximately 3 ml of sporangia suspension in a ventilated inoculation chamber using an air driven spray pistol, model JATO 232 FR at 0.2 bar to generate a homogeneous layer of fine troplets on the whole seedling.
When the troplets had dried, plants were transferred to Plexiglas boxes and kept at +20° C. and a 60% relative humidity for 24 h in the dark then light was switched on and the plants kept under the same conditions for additional four days. Afterwards plants were returned to the greenhouse and kept at standard conditions as described above.
10 days after inoculation, when the fungus sporulated on control plants, the degree of infection was visually determined as % of infected leaf area on the inoculated leaves plants. The degree of protection was calculated with respect to the control plants according to the formula: [formula]

Phytophthora infestans = format: in vivo; details: potato; standard chemical inducer at 500 ppm

Row | Structure (SMILES) | % infected ([1]; concentration 30 ppm) | % protection ([1]; concentration 30 ppm) | % infected ([1]; concentration 60 ppm) | % protection ([1]; concentration 60 ppm) | % infected leaf area (Phytophthora infestans) | % protection (Phytophthora infestans)
1 | CSC(=O)c1cccc2nnsc12 [CGA 245 704] | 31.3% | 48.8% | 60% | 20% | – | –
2 | CC(N)CC(=O)O (stereo not drawn) [BABA, beta-butyric acid] | – | – | – | – | 23% | 61%
